A short description of the data set: Peptide solubility in aqueous buffers and water. As for the experimental part:
These peptides contained two glutamate or arginine residues at the N- and C-termini for increased solubility. The full amino acid sequence of the purchased Aβ was […] (Peptide 2.0 Inc. Company) and […] (Sigma-Aldrich). The peptide mass was verified using MALDI-TOF mass spectroscopy. To dissolve the peptides, phosphate and acetate aqueous buffers were prepared. None of the buffers contained hydrophobic solvents known to solubilize and stabilize α-helices (i.e. TFE or HFPI) or surfactants known to dissolve hydrophobic peptides (i.e. SDS). Henceforth, the Aβ17–34 peptide refers to the peptide flanked by two glutamates.
To solubilize Aβ, several approaches were taken. One approach was to add two arginines at the N- and C-termini. […] Another approach was to add two glutamic acids at the N- and C-termini.

For `CC[C@H](C)[C@H](NC(=O)[C@H](C)NC(=O)CNC(=O)[C@H](CCCCN)NC(=O)[C@H](CC(N)=O)NC(=O)[C@H](CO)NC(=O)CNC(=O)[C@@H](NC(=O)[C@H](CC(=O)O)NC(=O)[C@H](CCC(=O)O)NC(=O)[C@H](C)NC(=O)[C@H](Cc1ccccc1)NC(=O)[C@H](Cc1ccccc1)NC(=O)[C@@H](NC(=O)[C@H](CC(C)C)NC(=O)[C@H](CCCNC(=N)N)NC(=O)[C@@H](N)CCCNC(=N)N)C(C)C)C(C)C)C(=O)N[C@H](C(=O)NCC(=O)N[C@@H](CC(C)C)C(=O)N[C@@H](CCCNC(=N)N)C(=O)N[C@@H](CCCNC(=N)N)C(=O)O)[C@@H](C)CC`, the “solubility in acetate and phosphate buffers at pH 1, 7 and 10” value (acetate and phosphate aqueous buffers, pH 1, 7 and 10, no TFE, HFPI or SDS, compared with peptide without flanking residues) is “did not improve solubility”.
Take `CC[C@H](C)[C@H](NC(=O)[C@H](C)NC(=O)CNC(=O)[C@H](CCCCN)NC(=O)[C@H](CC(N)=O)NC(=O)[C@H](CO)NC(=O)CNC(=O)[C@@H](NC(=O)[C@H](CC(=O)O)NC(=O)[C@H](CCC(=O)O)NC(=O)[C@H](C)NC(=O)[C@H](Cc1ccccc1)NC(=O)[C@H](Cc1ccccc1)NC(=O)[C@@H](NC(=O)[C@H](CC(C)C)NC(=O)[C@H](CCC(=O)O)NC(=O)[C@@H](N)CCC(=O)O)C(C)C)C(C)C)C(=O)N[C@H](C(=O)NCC(=O)N[C@@H](CC(C)C)C(=O)N[C@@H](CCC(=O)O)C(=O)N[C@@H](CCC(=O)O)C(=O)O)[C@@H](C)CC` [Aβ17–34 peptide]: the “effect of terminal residue addition on solubility” value is on record as “improved solubility drastically” and the solubility in water result is reported as “not in water”. For the setting “pH 7”, the “solubility in 50 mM acetate buffer at pH 7” value is on record as “soluble” and the “solubility in 50 mM phosphate buffer at pH 7” value is reported as “soluble”.

The values are drawn from PMC4242080, “NMR structure of the water soluble Aβ17–34 peptide” (Bioscience Reports, 2014).
